Measurements reported in patent publication US8748436B2, “Carboxylic acid derivatives having a 2,5,7-substituted oxazolopyrimidine ring” (Sanofi, priority 2010, dated 2014).

The molecules below were run against T1, human Edg-1 receptor (Homo sapiens, UniProt P21453) (assay: GTP-γ-S assay using human Edg-1 receptors (scintillation proximity assay, CHO Flp-In cell membrane preparation)). Settings: test compound at 10 μM; high control 10 μM S1P regarded as 100% activation; [35S]GTP-γ-S binding, triplicate.
T1 construct: FLAG (N); expressed in transfected cells; membrane preparation
T1 sequence (P21453 whole entry): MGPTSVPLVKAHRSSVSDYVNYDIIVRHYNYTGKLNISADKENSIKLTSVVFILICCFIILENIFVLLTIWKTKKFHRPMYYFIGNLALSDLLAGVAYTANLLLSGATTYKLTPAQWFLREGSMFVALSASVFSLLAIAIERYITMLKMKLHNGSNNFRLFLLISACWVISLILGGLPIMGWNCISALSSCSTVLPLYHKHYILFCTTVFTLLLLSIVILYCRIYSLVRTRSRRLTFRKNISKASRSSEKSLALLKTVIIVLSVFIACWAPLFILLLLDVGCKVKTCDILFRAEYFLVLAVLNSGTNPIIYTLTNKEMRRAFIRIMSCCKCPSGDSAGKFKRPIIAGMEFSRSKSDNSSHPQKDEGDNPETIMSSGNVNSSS
Format: biochemical
Text: A) GTP-γ-S Assay Using Human Edg-1 Receptors
In order to determine the Edg-1 receptor activation by the compounds of the invention, a GTP-γ-S (guanosine 5′-[thio]triphosphate) assay for G-protein coupled receptor binding based on the scintillation proximity assay principle was used, employing a cell membrane preparation from a CHO Flp-In cell line which constitutively overexpresses the human Edg-1 receptor.
The Flp-In™ expression system (Invitrogen, cat. no. K6010-01) allows the generation of stable mammalian cell lines into which the gene of interest has been integrated through homologous recombination at a specific genomic location called Flp Recombination Target (FRT) site by means of a Flp recombinase encoded by the pOG44 expression plasmid. The integration of the pcDNA5/FRT expression construct into the Flp-In host cell line genome results in the transcription of the gene of interest. The stably transfected cells become hygromycin-resistant.
One day prior to transfection, 200 000 Flp-In-CHO cells were seeded in Ham F-12 medium (Invitrogen, cat. no. 31765) supplemented with 10% fetal calf serum (FCS; Perbio Science, cat. no. SH30068.03) in a 6-well plate and incubated at 37° C./5% CO2 overnight. Using the FuGENE® 6 transfection reagent (Roche, cat. no. 11988387001), cells were cotransfected with the Flp recombinase expression plasmid pOG44 and a modified plasmid additionally containing the edg-1 gene (accession no. NM_001400) termed as pcDNA5-FRT-TO_nFLAG_DEST-EDG-1 with a 9:1 ratio. To obtain the modified pcDNA5-FRT-TO_nFLAG_DEST plasmid, the Invitrogen plasmid pcDNA5/FRT/TO (Invitrogen, cat. no. V6520-20) was adapted to the Gateway® (Invitrogen) cloning system by inserting a Gateway cassette containing attR recombination sites flanking a ccdB gene and a chloramphenicol-resistance gene (Gateway conversion system, Invitrogen, cat. no. 11828-029). In addition a FLAG tag epitope was added before the 5′ att recombination site to allow recombinant expression of N-terminally FLAG-tagged proteins.
For the transfection of one well, 1.08 μg of pOG44 and 0.12 μg of pcDNA5-FRT-TO_nFLAG_DEST-EDG-1 were mixed to 100 μl of serum-free Ham F-12 medium containing 6 μl of FuGENE® 6 transfection reagent. After 20 min of incubation, the transfection reagent/DNA complex was distributed dropwise on the cells. The cells were incubated for 24 h at 37° C. Then the cells from 3 wells were transferred to a T75 flask (Greiner Cellstar®, cat. no. 658175) containing Ham F-12 medium supplemented with 10% of FCS but without antibiotic and were incubated another 24 h. 48 h after transfection, the medium was replaced by selection medium (Ham F-12 supplemented with 10% of FCS and 300 μg/ml of hygromycin B (Invitrogen, cat. no. 10687-010)). The medium was exchanged every 2 to 3 days until a resistant population of cells had grown. […] After 2 weeks of selection, the cells were transferred into T175 flasks (Greiner Cellstar®, cat. no. 660175) and cultivated for batch production. Cells were harvested from the culture flasks by short treatment (2 to 5 min) with Accutase (PAA, cat. no. L11-007), resuspended in selection medium (see above) and centrifuged at 200×g for 5 min. The cells were resuspended in a mixture of 90% of FCS and 10% of dimethylsulfoxide and stored frozen in liquid nitrogen.
A membrane preparation was obtained by standard methods from the afore-described CHO Flp-In cell line constitutively overexpressing the human Edg-1 receptor. Briefly, the cryopreserved cells were taken in culture and grown until confluency in T175 cell culture flasks (Becton Dickinson, cat. no. 35 5001). […]

SMILES	% Activation (Edg-1 receptor activation in percent of the activation by 10 μM S1P)
CCCOc1nc(Oc2cccc(F)c2)nc2oc(-c3cc(C)c(OCC(=O)O)c(C)c3)nc12 [Example 34, {4-[5-(3-fiuorophenoxy)-7-propoxy-oxazolo[5,4-d]pyrimidin-2-yl]-2,6-dimethyl-phenoxy}-acetic acid]	48%
CCCOc1nc(Oc2ccc(F)cc2)nc2oc(-c3cc(C)c(OCC(=O)O)c(C)c3)nc12 [Example 35, {4-[5-(4-fiuorophenoxy)-7-propoxy-oxazolo[5,4-d]pyrimidin-2-yl]-2,6-dimethylphenoxy}-acetic acid]	79%

Same assay, conditions: test compound at 10 μM; high control 10 μM S1P regarded as 100% activation; [35S]GTP-γ-S binding, triplicate; read-out: % Activation (Edg-1 receptor activation in percent of the activation by 10 μM S1P)

activation at 10 µM	SMILES
109%	CCCOc1nc(Oc2ccsn2)nc2oc(-c3cc(C)c(OCC(=O)O)c(C)c3)nc12 [Example 27, {4-[5-(isothiazol-3-yloxy)-7-propoxy-oxazolo[5,4-d]pyrimidin-2-yl]-2,6-dimethylphenoxy}-acetic acid]
83%	CCCOc1nc(Oc2cnsn2)nc2oc(-c3cc(C)c(OCC(=O)O)c(C)c3)nc12 [Example 28, {2,6-dimethyl-4-[7-propoxy-5-([1,2,5]thiadiazol-3-yloxy)-oxazolo[5,4-d]pyrimidin-2-yl]-phenoxy}-acetic acid]
75%	CCCOc1nc(Oc2cccc(C)c2)nc2oc(-c3cc(C)c(OCC(=O)O)c(C)c3)nc12 [Example 29, [2,6-dimethyl-4-(7-propoxy-5-(3-methylphenoxy)-oxazolo[5,4-d]pyrimidin-2-yl)-phenoxy]-acetic acid]
97%	CCCOc1nc(Oc2ccccc2C)nc2oc(-c3cc(C)c(OCC(=O)O)c(C)c3)nc12 [Example 30, [2,6-dimethyl-4-(7-propoxy-5-(2-methylphenoxy)-oxazolo[5,4-d]pyrimidin-2-yl)-phenoxy]-acetic acid]
72%	CCCOc1nc(Oc2ccc(C)cc2)nc2oc(-c3cc(C)c(OCC(=O)O)c(C)c3)nc12 [Example 31, [2,6-dimethyl-4-(7-propoxy-5-(4-methylphenoxy)-oxazolo[5,4-d]pyrimidin-2-yl)-phenoxy]-acetic acid]
114%	CCCOc1nc(Oc2ccc(C)nc2)nc2oc(-c3cc(C)c(OCC(=O)O)c(C)c3)nc12 [Example 32, {2,6-dimethyl-4-[5-(6-methylpyridin-3-yloxy)-7-propoxy-oxazolo[5,4-d]pyrimidin-2-yl]-phenoxy}-acetic acid]
110%	CCCOc1nc(Oc2cncc(C)c2)nc2oc(-c3cc(C)c(OCC(=O)O)c(C)c3)nc12 [Example 33, {2,6-dimethyl-4-[5-(5-methylpyridin-3-yloxy)-7-propoxy-oxazolo[5,4-d]pyrimidin-2-yl]-phenoxy}-acetic acid]
116%	CCOc1nc(Oc2cc(F)ccc2C)nc2oc(-c3cc(C)c(OCC(=O)O)c(C)c3)nc12 [Example 36, {4-[7-ethoxy-5-(5-fluoro-2-methylphenoxy)-oxazolo[5,4-d]pyrimidin-2-yl]-2,6-dimethyl-phenoxy}-acetic acid]
117%	CCCOc1nc(Oc2cncc(F)c2)nc2oc(-c3cc(C)c(OCC(=O)O)c(C)c3)nc12 [Example 37, {4-[5-(5-fluoropyridin-3-yloxy)-7-propoxy-oxazolo[5,4-d]pyrimidin-2-yl]-2,6-dimethyl-phenoxy}-acetic acid]
55%	CCOc1nc(Oc2cccc(Cl)c2)nc2oc(-c3cc(C)c(OCC(=O)O)c(C)c3)nc12 [Example 38, {4-[5-(3-chlorophenoxy)-7-ethoxy-oxazolo[5,4-d]pyrimidin-2-yl]-2,6-dimethyl-phenoxy}-acetic acid]
121%	CCOc1nc(Oc2cc(F)ccc2F)nc2oc(-c3cc(C)c(OCC(=O)O)c(C)c3)nc12 [Example 39, {4-[5-(2,5-difluorophenoxy)-7-ethoxy-oxazolo[5,4-d]pyrimidin-2-yl]-2,6-dimethyl-phenoxy}-acetic acid]
95%	CCCOc1nc(Oc2cccc(CC)c2)nc2oc(-c3cc(C)c(OCC(=O)O)c(C)c3)nc12 [Example 40, {4-[5-(3-ethylphenoxy)-7-propoxy-oxazolo[5,4-d]pyrimidin-2-yl]-2,6-dimethyl-phenoxy}-acetic acid]
73%	CCCOc1nc(Oc2cccc(OC)c2)nc2oc(-c3cc(C)c(OCC(=O)O)c(C)c3)nc12 [Example 41, {4-[5-(3-methoxyphenoxy)-7-propoxy-oxazolo[5,4-d]pyrimidin-2-yl]-2,6-dimethylphenoxy}-acetic acid]
66%	CCCOc1nc(Oc2cc(C)cc(F)c2)nc2oc(-c3cc(C)c(OCC(=O)O)c(C)c3)nc12 [Example 42, {4-[5-(3-fluoro-5-methylphenoxy)-7-propoxy-oxazolo[5,4-d]pyrimidin-2-yl]-2,6-dimethyl-phenoxy}-acetic acid]
60%	CCCOc1nc(Oc2ccc(F)c(C)c2)nc2oc(-c3cc(C)c(OCC(=O)O)c(C)c3)nc12 [Example 43, {4-[5-(4-fluoro-3-methylphenoxy)-7-propoxy-oxazolo[5,4-d]pyrimidin-2-yl]-2,6-dimethyl-phenoxy}-acetic acid]
43%	CCCOc1nc(Oc2ccc(C)cc2F)nc2oc(-c3cc(C)c(OCC(=O)O)c(C)c3)nc12 [Example 44, {4-[5-(2-fluoro-4-methylphenoxy)-7-propoxy-oxazolo[5,4-d]pyrimidin-2-yl]-2,6-dimethylphenoxy}-acetic acid]
67%	CCCOc1nc(Oc2cc(C)ccc2F)nc2oc(-c3cc(C)c(OCC(=O)O)c(C)c3)nc12 [Example 45, {4-[5-(2-fluoro-5-methylphenoxy)-7-propoxy-oxazolo[5,4-d]pyrimidin-2-yl]-2,6-dimethylphenoxy}-acetic acid]
59%	CCCOc1nc(Oc2ccc(Cl)cc2)nc2oc(-c3cc(C)c(OCC(=O)O)c(C)c3)nc12 [Example 46, {4-[5-(4-chlorophenoxy)-7-propoxy-oxazolo[5,4-d]pyrimidin-2-yl]-2,6-dimethylphenoxy}-acetic acid]
86%	CCCOc1nc(Oc2ccccc2Cl)nc2oc(-c3cc(C)c(OCC(=O)O)c(C)c3)nc12 [Example 47, {4-[5-(2-chlorophenoxy)-7-propoxy-oxazolo[5,4-d]pyrimidin-2-yl]-2,6-dimethylphenoxy}-acetic acid]
115%	CCCOc1nc(Oc2cncc(Cl)c2)nc2oc(-c3cc(C)c(OCC(=O)O)c(C)c3)nc12 [Example 48, {4-[5-(5-chloropyridin-3-yloxy)-7-propoxy-oxazolo[5,4-d]pyrimidin-2-yl]-2,6-dimethyl-phenoxy}-acetic acid]
103%	CCCOc1nc(Oc2cccc(F)c2F)nc2oc(-c3cc(C)c(OCC(=O)O)c(C)c3)nc12 [Example 49, {4-[5-(2,3-difluorophenoxy)-7-propoxy-oxazolo[5,4-d]pyrimidin-2-yl]-2,6-dimethylphenoxy}-acetic acid]
86%	CCCOc1nc(Oc2cc(F)cc(F)c2)nc2oc(-c3cc(C)c(OCC(=O)O)c(C)c3)nc12 [Example 50, {4-[5-(3,5-difluorophenoxy)-7-propoxy-oxazolo[5,4-d]pyrimidin-2-yl]-2,6-dimethyl-phenoxy}-acetic acid]
49%	CCCOc1nc(Oc2ccc(F)c(F)c2)nc2oc(-c3cc(C)c(OCC(=O)O)c(C)c3)nc12 [Example 51, {4-[5-(3,4-difluorophenoxy)-7-propoxy-oxazolo[5,4-d]pyrimidin-2-yl]-2,6-dimethylphenoxy}-acetic acid]
